Reference: ChEMBL document CHEMBL1153284, “N-(3-fluoro-4-(2-arylthieno[3,2-b]pyridin-7-yloxy)phenyl)-2-oxo-3-phenylimidazolidine-1-carboxamides: a novel series of dual c-Met/VEGFR2 receptor tyrosine kinase inhibitors” (Bioorg Med Chem Lett, 2009)
The source made the active and inactive calls. The rule behind the calls is not given here.

Key:
[1] = molecular target: Vascular endothelial growth factor receptor 2 (Homo sapiens, UniProt P35968); test: Inhibition of GST-fused recombinant VGFR2 catalytic domain expressed in baculovirus-infected Sf9 cells after 10 mins by DELFIA assay
[2] = molecular target: T1, Hepatocyte growth factor receptor (Homo sapiens, UniProt P08581); conditions: 293t
Description: Inhibition of TPR-fused Met phosphorylation expressed in human 293T cells by ELISA

[3] = molecular target: T1, Hepatocyte growth factor receptor; test: biochemical
Description: Inhibition of GST-fused recombinant c-Met catalytic domain expressed in baculovirus-infected Trichoplusia ni Hi5 cells after 30 mins by DELFIA assay

[4] = molecular target: T2, Aurora kinase A (Homo sapiens) (UniProt O14965); test: Inhibition of Aurora A at 100 nM
T2 sequence (whole entry): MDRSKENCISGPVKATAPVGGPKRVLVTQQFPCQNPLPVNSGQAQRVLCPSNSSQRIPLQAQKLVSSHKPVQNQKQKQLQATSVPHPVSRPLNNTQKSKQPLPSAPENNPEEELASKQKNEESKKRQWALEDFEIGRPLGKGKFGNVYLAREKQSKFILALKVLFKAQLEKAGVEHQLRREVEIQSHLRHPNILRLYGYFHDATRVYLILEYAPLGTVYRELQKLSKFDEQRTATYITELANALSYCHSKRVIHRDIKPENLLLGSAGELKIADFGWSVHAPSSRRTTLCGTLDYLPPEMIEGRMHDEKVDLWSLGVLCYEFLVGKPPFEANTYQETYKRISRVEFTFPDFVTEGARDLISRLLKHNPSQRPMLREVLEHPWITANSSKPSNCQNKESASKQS

HUVEC [5] = test: Inhibition of VEGF-dependent proliferation in HUVEC; type: functional, cell-based; conditions: Homo sapiens
[6] = molecular target: Angiopoietin-1 receptor (Homo sapiens) (UniProt Q02763); test: Inhibition of Tie2 at 100 nM
HUVEC [7] = test: Inhibition of tubule growth in HUVEC by angiogenesis assay; type: functional, cell-based; conditions: Homo sapiens
HUVEC [8] = test: Inhibition of tubule formation in HUVEC assessed as tubule length at 100 nM by angiogenesis assay in presence of VEGF; type: functional; conditions: Homo sapiens
HCT-116 = test: Antiproliferative activity against c-Met-independent human HCT116 cells after 72 hrs by MTT assay; type: functional, cell-based; conditions: HCT-116, 72 h
MKN-45 [9] = test: Antiproliferative activity against human MKN45 cells expressing c-Met after 72 hrs by MTT assay; type: functional, cell-based; conditions: MKN-45, 72 h
[10] = molecular target: Vascular endothelial growth factor receptor 3 (Homo sapiens) (UniProt P35916); test: Inhibition of VEGFR3 at 100 nM
[11] = Bioavailability in rat at 4.28 to 4.98 mg/kg, po; type: ADME, organism-based; conditions: in vivo
[12] = Inhibition of VEGF-dependent ERK phosphorylation
[13] = molecular target: Macrophage-stimulating protein receptor (Homo sapiens) (UniProt Q04912); test: Inhibition of Ron at 100 nM
MDA-MB-231 = test: Antiproliferative activity against c-Met-independent human MDA-MB-231 cells after 72 hrs by MTT assay; type: functional, cell-based; conditions: MDA-MB-231, 72 h
[14] = molecular target: Receptor-type tyrosine-protein kinase FLT3 (Homo sapiens) (UniProt P36888); test: Inhibition of FLT3 at 100 nM
[15] = Half life in rat at 2.17 to 2.86 mg/kg, iv; type: ADME, organism-based; design: dose 2.17-2.86 mg/kg, route intravenous; conditions: in vivo
[16] = molecular target: Vascular endothelial growth factor receptor 1 (Homo sapiens) (UniProt P17948); test: Inhibition of VEGFR1 at 100 nM
MKN-45 [17] = test: Antitumor activity against human MKN45 cells xenografted in mouse assessed as regression of tumor growth at 40 mg/kg, po administered once daily for 12 days; type: functional, organism-based; design: dose 40 mg/kg
HOS-TE85 = test: Antiproliferative activity against human MNNG-HOS cells expressing TPR-fused Met after 72 hrs by MTT assay; type: functional, cell-based; conditions: HOS-TE85, 72 h

In the case of CN(C)CCn1cnc(-c2cc3nccc(Oc4ccc(NC(=O)N5CCN(c6ccccc6)C5=O)cc4F)c3s2)c1, the IC50 [1] is reported as 14 nM, the IC50 [2] is reported as 60 nM and the IC50 [3] is reported as 34 nM.
In the case of Cn1cnc(-c2cc3nccc(Oc4ccc(NC(=O)N5CCN(c6ccccc6)C5=S)cc4F)c3s2)c1, the IC50 [1] is reported as 1800 nM, the IC50 [2] is reported as over 10000 nM and the IC50 [3] is reported as 2000 nM.
With Cn1cnc(-c2cc3nccc(Oc4ccc(NC(=O)NC(=O)Cc5ccccc5)cc4F)c3s2)c1 the IC50 [1] was 37 nM and the IC50 [3] was 25 nM.
CC(C)n1cnc(-c2cc3nccc(Oc4ccc(NC(=O)C5CC(=O)N(c6ccccc6)C5)cc4F)c3s2)c1 (stereo not drawn) gave an IC50 [1] of 800 nM and an IC50 [3] of 300 nM.
Work on CN1CCN(CCN(C)Cc2ccc(-c3cc4nccc(Oc5ccc(NC(=O)N6CCN(c7ccccc7)C6=O)cc5F)c4s3)cc2)CC1 yielded an IC50 [1] of 3 nM, an IC50 [2] of 830 nM and an IC50 [3] of 28 nM.
For CCn1ccnc1-c1cc2nccc(Oc3ccc(NC(=O)N4CCN(c5ccccc5)C4=O)cc3F)c2s1, the IC50 [1] was 26 nM, the IC50 [2] was 140 nM and the IC50 [3] was 24 nM.
Compound Cn1cnc(-c2cc3nccc(Oc4ccc(NC(=O)CC(=O)Nc5ccccc5)cc4F)c3s2)c1 has an IC50 [1] of 15 nM, an IC50 [2] of 310 nM and an IC50 [3] of 28 nM.
Work on O=C(Nc1ccc(Oc2ccnc3cc(-c4cn(CCN5CCCC5)cn4)sc23)c(F)c1)N1CCN(c2ccccc2)C1=O yielded an IC50 [1] of 20 nM, an IC50 [2] of 320 nM and an IC50 [3] of 35 nM.
Compound CNC(=O)N1CCN(Cc2ccc(-c3cc4nccc(Oc5ccc(NC(=O)N6CCN(c7ccccc7)C6=O)cc5F)c4s3)cc2)CC1 has an IC50 [1] of 8 nM, an IC50 [2] of 80 nM and an IC50 [3] of 16 nM.
Cn1cnc(-c2cc3nccc(Oc4ccc(NC(=O)C5(C)CCN(c6ccccc6)C5=O)cc4F)c3s2)c1 (stereo not drawn) gave an IC50 [1] of 230 nM, an IC50 [2] of 1000 nM and an IC50 [3] of 67 nM.
With CCn1cnc(-c2cc3nccc(Oc4ccc(NC(=O)N5CCN(c6ccc(F)cc6)C5=O)cc4F)c3s2)c1 the inhibition [4] was 9%, the IC50 (HUVEC [5]) was 6 nM and the inhibition [6] was 99%. The IC50 (HUVEC [7]) was 6 nM, the inhibition at 0.1 µM (HUVEC [8]) was 98% and the IC50 (HCT-116) was 13000 nM. For the same compound, the IC50 (MKN-45 [9]) was 10 nM, the IC50 [1] was 7 nM and the IC50 [2] was 50 nM. The IC50 [3] was 27 nM, the inhibition [10] was 99% and the bioavailability [11] was 37%. It also gave an IC50 [12] of 1 nM, an inhibition [13] of 100% and an IC50 (MDA-MB-231) of 20000 nM. For the same compound, the inhibition [14] was 80%, the half-life [15] was 6.3 h and the inhibition [16] was 99%. The Activity (MKN-45 [17]) was “Active” and the IC50 (HOS-TE85) was 33 nM.
In the case of CN(C)[C@H]1CCN(C(=O)c2cc3nccc(Oc4ccc(NC(=O)N5CCN(c6ccccc6)C5=O)cc4F)c3s2)C1, the IC50 [1] is reported as 23 nM, the IC50 [2] is reported as 230 nM and the IC50 [3] is reported as 42 nM.
For CCn1cnc(-c2cc3nccc(Oc4ccc(NC(=O)N5CCN(c6ccccc6F)C5=O)cc4F)c3s2)c1, the IC50 [1] was 3 nM, the IC50 [2] was 100 nM and the IC50 [3] was 21 nM.
Cn1cnc(-c2cc3nccc(Oc4ccc(NC(=O)C5CCN(c6ccccc6)C5=O)cc4F)c3s2)c1 (stereo not drawn) showed an IC50 [1] of 39 nM, an IC50 [2] of 370 nM and an IC50 [3] of 35 nM. It also gave a bioavailability [11] of 14% and a half-life [15] of 1.1 h.
Work on CN1CC=C(c2cc3nccc(Oc4ccc(NC(=O)N5CCN(c6ccccc6)C5=O)cc4F)c3s2)CC1 yielded an IC50 [1] of 170 nM, an IC50 [2] of 300 nM and an IC50 [3] of 33 nM.
Compound CN1CCN(Cc2ccc(-c3cc4nccc(Oc5ccc(NC(=O)N6CCN(c7ccccc7)C6=O)cc5F)c4s3)cc2)CC1 has an IC50 [1] of 12 nM, an IC50 [2] of 250 nM and an IC50 [3] of 29 nM.
Compound CC(=O)c1cccc(-c2cc3nccc(Oc4ccc(NC(=O)N5CCN(c6ccccc6)C5=O)cc4F)c3s2)c1 has an IC50 [1] of 880 nM, an IC50 [2] of 270 nM and an IC50 [3] of 200 nM.
CCn1cnc(-c2cc3nccc(Oc4ccc(NC(=O)N5CCN(c6ccccc6OC)C5=O)cc4F)c3s2)c1 gave an IC50 [1] of 14 nM, an IC50 [2] of 60 nM and an IC50 [3] of 26 nM.
Cn1cnc(-c2cc3nccc(Oc4ccc(NC(=S)N5CCN(c6ccccc6)C5=O)cc4F)c3s2)c1 showed an IC50 [1] of 12 nM, an IC50 [2] of 80 nM and an IC50 [3] of 24 nM.
Compound Cn1cnc(-c2cc3nccc(Oc4ccc(NC(=O)N5CCN(c6ccccc6)C5=O)cc4F)c3s2)c1 has an IC50 [1] of 8 nM, a bioavailability [11] of 13% and a half-life [15] of 2.3 h.
Work on CC(C)n1cnc(-c2cc3nccc(Oc4ccc(NC(=O)C5CCN(c6ccccc6)C5=O)cc4F)c3s2)c1 (stereo not drawn) yielded an IC50 [1] of 16 nM, an IC50 [2] of 210 nM and an IC50 [3] of 39 nM.
In the case of Cn1ccnc1-c1cc2nccc(Oc3ccc(NC(=O)N4CCN(c5ccccc5)C4=O)cc3F)c2s1, the IC50 [1] is reported as 31 nM, the IC50 [2] is reported as 120 nM and the IC50 [3] is reported as 26 nM.
With O=C(Nc1ccc(Oc2ccnc3cc(-c4cn(CCCN5CCCC5)cn4)sc23)c(F)c1)N1CCN(c2ccccc2)C1=O the IC50 [1] was 8 nM, the IC50 [2] was 300 nM and the IC50 [3] was 21 nM.
Compound Cn1cnc(-c2cc3nccc(Oc4ccc(NC(=S)NC(=O)Cc5ccccc5)cc4F)c3s2)c1 has an IC50 [1] of 26 nM and a half-life [15] of 1.2 h.
In the case of CCn1cnc(-c2cc3nccc(Oc4ccc(NC(=O)N5CCN(c6ccccc6)C5=O)cc4F)c3s2)c1, the IC50 [1] is reported as 12 nM, the IC50 [2] is reported as 40 nM and the IC50 [3] is reported as 25 nM.
With Cn1cnc(-c2cc3nccc(Oc4ccc(NC(=O)C5(C(=O)Nc6ccccc6)CC5)cc4F)c3s2)c1 the IC50 [1] was 9 nM, the IC50 [2] was 60 nM and the IC50 [3] was 28 nM.
With CN(C(=O)CC(=O)Nc1ccc(Oc2ccnc3cc(-c4cn(C)cn4)sc23)c(F)c1)c1ccccc1 the IC50 [1] was 10 nM, the IC50 [2] was 160 nM and the IC50 [3] was 43 nM.
CN(C(=O)C1(C(=O)Nc2ccc(Oc3ccnc4cc(-c5cn(C)cn5)sc34)c(F)c2)CC1)c1ccccc1 showed an IC50 [1] of 57 nM, an IC50 [2] of 1440 nM and an IC50 [3] of 1000 nM.
Work on O=C(Nc1ccc(Oc2ccnc3cc(-c4ccc(CN5CCNCC5)cc4)sc23)c(F)c1)N1CCN(c2ccccc2)C1=O yielded an IC50 [1] of 11 nM, an IC50 [2] of 420 nM and an IC50 [3] of 22 nM.
